18 compounds from patent publication US9108983B2, “Pyrrole compounds, a process for their preparation and pharmaceutical compositions containing them” (LES LABORATOIRES SERVIER, priority 2013, dated 2015) can be followed below.

Where a name gives a salt, the structure may show the parent alone. Read-outs that look alike come from different tables or passages of the source.

One experiment deals with Bcl-2 protein (histag-Bcl-2, UniProtKB P10415) (Homo sapiens (Human), UniProt P10415). Description: Inhibition of Bcl-2 by the fluorescence polarisation technique. The experiment is classed as binding. Conditions: incubation for 2 hours, read-out: IC50 (nM) Bcl-2 FP. On the procedure: The fluorescence polarisation tests were carried out on microplates (384 wells). The Bcl-2 protein, labelled (histag-Bcl-2 such that Bcl-2 corresponds to the UniProtKB® primary accession number: P10415), at a final concentration of 2.50×10^−8 M, is mixed with a fluorescent peptide (Fluorescein-[…]), at a final concentration of 1.00×10^−8 M in a buffer solution (Hepes 10 mM, NaCl 150 mM, Tween20 0.05%, pH 7.4), in the presence or absence of increasing concentrations of test compounds. After incubation for 2 hours, the fluorescence polarisation is measured.

The test system of experiment [1] is RS4;11 leukaemia tumour line. Briefly: In vitro cytotoxicity (Microculture Tetrazolium Assay). To be noted: RS4;11 cells, exposed for 48 hours, cell viability, read-out: IC50 (nM) MTT RS4;11. In kind it is cell-based. On the procedure: The cytotoxicity studies were carried out on the RS4;11 leukaemia tumour line.
The cells are distributed onto microplates and exposed to the test compounds for 48 hours.
The cell viability is then quantified by a colorimetric assay, the Microculture Tetrazolium Assay (Cancer Res., 1987, 47, 939-942).

Sequence of Bcl-2 protein (P10415 whole entry): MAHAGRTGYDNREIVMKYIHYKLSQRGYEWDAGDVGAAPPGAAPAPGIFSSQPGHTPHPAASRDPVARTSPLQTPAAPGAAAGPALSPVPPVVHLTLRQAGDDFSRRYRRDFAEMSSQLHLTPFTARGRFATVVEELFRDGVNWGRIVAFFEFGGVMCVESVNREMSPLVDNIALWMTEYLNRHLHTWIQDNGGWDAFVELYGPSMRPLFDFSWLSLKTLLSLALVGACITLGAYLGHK

Regarding `CN1CCN(C[C@@H]2Cc3ccccc3CN2C(=O)c2ccc(Cl)cc2-c2cc(C(=O)N(c3ccc(O)cc3)c3ccc4c(ccn4C)c3)cn2C)CC1` [Example 5, 5-(5-Chloro-2-{[(3S)-3-[(4-methylpiperazin-1-yl)methyl]-3,4-dihydroisoquinolin-2(1H)-yl]carbonyl}phenyl)-N-(4-hydroxyphenyl)-1-methyl-N-(1-methyl-1H-indol-5-yl)-1H-pyrrole-3-carboxamide hydrochloride], the IC50 at Bcl-2 protein worked out at 21.2 nM; in experiment [1] (Homo sapiens, RS4-11, 48 h) it was 44.8 nM.
`CCn1cc(C(=O)N(c2ccc(O)cc2)c2ccc3c(ccn3C)c2)cc1-c1cc(Cl)ccc1C(=O)N1Cc2ccccc2C[C@H]1CN1CCN(C)CC1` [Example 6, 5-(5-Chloro-2-{[(3S)-3-[(4-methylpiperazin-1-yl)methyl]-3,4-dihydroisoquinolin-2(1H)-yl]carbonyl}phenyl)-1-ethyl-N-(4-hydroxyphenyl)-N-(1-methyl-1H-indol-5-yl)-1H-pyrrole-3-carboxamide]: the IC50 at Bcl-2 protein came to 25.2 nM; in experiment [1] (Homo sapiens, RS4-11, 48 h) it was 69 nM.
The matching figures for `CN1CCN(C[C@@H]2Cc3ccccc3CN2C(=O)c2ccc(Cl)cc2-c2cc(C(=O)N(c3ccc(O)cc3)c3ccc4c(ccn4C)c3)cn2C2CC2)CC1` [Example 7, 5-(5-Chloro-2-{[(3S)-3-[(4-methylpiperazin-1-yl)methyl]-3,4-dihydroisoquinolin-2(1H)-yl]carbonyl}phenyl)-1-cyclopropyl-N-(4-hydroxyphenyl)-N-(1-methyl-1H-indol-5-yl)-1H-pyrrole-3-carboxamide]: 25.6 nM and 90.6 nM.
As to `CN1CCN(C[C@@H]2Cc3ccccc3CN2C(=O)c2cc3c(cc2-c2cc(C(=O)N(c4ccc(O)cc4)c4ccc5c(ccn5C)c4)cn2C)OCO3)CC1` [Example 9, N-(4-Hydroxyphenyl)-1-methyl-N-(1-methyl-1H-indol-5-yl)-5-(6-{[(3S)-3-[(4-methylpiperazin-1-yl)methyl]-3,4-dihydroisoquinolin-2(1H)-yl]carbonyl}-1,3-benzodioxol-5-yl)-1H-pyrrole-3-carboxamide hydrochloride], the IC50 on Bcl-2 protein was 22.4 nM; in experiment [1] (Homo sapiens, RS4-11, 48 h) it was 87.5 nM.
The matching figures for `Cc1c(C(=O)N(c2ccccc2)c2ccc(O)cc2)cc(-c2cc(F)ccc2C(=O)N2Cc3ccccc3C[C@H]2CN2CCOCC2)n1C` [Example 10, 5-(5-Fluoro-2-{[(3S)-3-(morpholin-4-ylmethyl)-3,4-dihydroisoquinolin-2(1H)-yl]carbonyl}phenyl)-N-(4-hydroxyphenyl)-1,2-dimethyl-N-phenyl-1H-pyrrole-3-carboxamide hydrochloride]: 16.2 nM and 205 nM.
Turning to `Cc1c(C(=O)N(c2ccccc2)c2ccc(O)cc2)cc(-c2cc(F)ccc2C(=O)N2Cc3ccccc3C[C@H]2CN2CCOCC2)n1CCCO` [Example 11, 5-(5-Fluoro-2-{[(3S)-3-(morpholin-4-ylmethyl)-3,4-dihydroisoquinolin-2(1H)-yl]carbonyl}phenyl)-N-(4-hydroxyphenyl)-1-(3-hydroxypropyl)-2-methyl-N-phenyl-1H-pyrrole-3-carboxamide hydrochloride], the IC50 at Bcl-2 protein came to 14.2 nM; in experiment [1] (Homo sapiens, RS4-11, 48 h) it was 202 nM.
As to `Cc1c(C(=O)N(c2ccc(O)cc2)c2ccc3c(cnn3C)c2)cc(-c2cc(F)ccc2C(=O)N2Cc3ccccc3C[C@H]2CN2CCOCC2)n1C` [Example 12, 5-(5-Fluoro-2-{[(3S)-3-(morpholin-4-ylmethyl)-3,4-dihydroisoquinolin-2(1H)-yl]carbonyl}phenyl)-N-(4-hydroxyphenyl)-1,2-dimethyl-N-(1-methyl-1H-indazol-5-yl)-1H-pyrrole-3-carboxamide hydrochloride], the IC50 came out at 5.5 nM on Bcl-2 protein and 39.6 nM in experiment [1] (Homo sapiens, RS4-11, 48 h).
For `Cc1ccc(N(C(=O)c2cc(-c3cc4c(cc3C(=O)N3Cc5ccccc5C[C@H]3CN3CCOCC3)OCO4)n(C)c2C)c2ccc(O)cc2)cc1F` [Example 13, N-(3-Fluoro-4-methylphenyl)-N-(4-hydroxyphenyl)-1,2-dimethyl-5-(6-{[(3S)-3-(morpholin-4-ylmethyl)-3,4-dihydroisoquinolin-2(1H)-yl]carbonyl}-1,3-benzodioxol-5-yl)-1H-pyrrole-3-carboxamide hydrochloride] the same measures were 4.4 nM and 19.8 nM.
With `Cc1c(C(=O)N(c2ccc(O)cc2)c2ccc3c(cnn3C)c2)cc(-c2cc3c(cc2C(=O)N2Cc4ccccc4C[C@H]2CN2CCOCC2)OCO3)n1C` [Example 14, N-(4-Hydroxyphenyl)-1,2-dlmethyl-N-(1-methyl-1H-indazol-5-yl)-5-(6-{[(3S)-3-(morpholil-4-ylmethyl)-3,4-dihydroisoquinolin-2(1H)-yl]carbonyl}-1,3-benzodioxol-5-yl)-1H-pyrrole-3-carboxamide hydrochloride], the IC50 at Bcl-2 protein is 3.7 nM; in experiment [1] it was 8.23 nM.
With `Cc1c(C(=O)N(c2ccccc2)c2ccc(O)cc2)cc(-c2cc3c(cc2C(=O)N2Cc4ccccc4C[C@H]2CN2CCOCC2)OCO3)n1C` [Example 15, N-(4-Hydroxyphenyl)-1,2-dimethyl-5-(6-{[(3S)-3-(morpholin-4-ylmethyl)-3,4-dihydroisoquinoin-2(1H)-yl]carbny}-1,3-benzodioxo-5-yl)-N-pheny-1H-pyrrole-3-carboxamide hydrochloride], the values for the IC50 (at Bcl-2 protein; in experiment [1]) were 11.1 nM and 69.4 nM, respectively.
`Cc1c(C(=O)N(c2ccc(O)cc2)c2cccc(F)c2)cc(-c2cc3c(cc2C(=O)N2Cc4ccccc4C[C@H]2CN2CCOCC2)OCO3)n1C` [Example 16, N-(3-Fluorophenyl)-N-(4-hydroxyphenyl)-1,2-dimethyl-5-(6-{[(3S)-3-(morpholin-4-ylmethyl)-3,4-dihydroisoquinolin-2(1H)-yl]carbonyl}-1,3-benzodioxol-5-yl)-1H-pyrrole-3-carboxamide hydrochloride]: the IC50 amounted to 12.6 nM at Bcl-2 protein and 22.7 nM in experiment [1] (Homo sapiens, RS4-11, 48 h).
For `Cc1c(C(=O)N(c2ccccc2)c2ccc(O)cc2)cc(-c2cc(Cl)ccc2C(=O)N2Cc3ccccc3C[C@H]2CN2CCOCC2)n1C` [Example 17, 5-(5-Chloro-2-{[(3S)-3-(morpholin-4-ylmethyl)-3,4-dihydroisoquinolin-2(1H)-yl]carbonyl}phenyl)-N-(4-hydroxyphenyl)-1,2-dimethyl-N-phenyl-1H-pyrrole-3-carboxamide hydrochloride], the IC50 came to 8 nM on Bcl-2 protein and 75.2 nM in experiment [1] (Homo sapiens, RS4-11, 48 h).
On to `Cc1c(C(=O)N(c2ccccc2)c2ccc(O)cc2)cc(-c2cc3c(cc2C(=O)N2Cc4ccccc4C[C@H]2CCN2CCOCC2)OCO3)n1CCO` [Example 18, 1-(2-Hydroxyethyl)-N-(4-hydroxyphenyl)-2-methyl-5-(6-{[(3S)-3-[2-(morpholin-4-yl)ethyl]-3,4-dihydroisoquinolin-2(1H)-yl]carbonyl}-1,3-benzodioxol-5-yl)-N-phenyl-1H-pyrrole-3-carboxamide hydrochloride], for which the IC50 at Bcl-2 protein turned out to be 3.9 nM; in experiment [1] (Homo sapiens, RS4-11, 48 h), 27.6 nM.
Consider `COc1ccc(C(=O)N2Cc3ccccc3C[C@H]2CN2CCOCC2)c(-c2cc(C(=O)N(c3ccccc3)c3ccc(O)cc3)c(C)n2C)c1` [Example 19, N-(4-Hydroxyphenyl)-5-(5-methoxy-2-{[(3S)-3-(morpholin-4-ylmethyl)-3,4-dihydroisoquinolin-2(1H)-yl]carbonyl}phenyl)-1,2-dimethyl-N-phenyl-. H-pyrrole-3-carboxamide hydrochloride], for which the values for the IC50 (at Bcl-2 protein; in experiment [1]) were 6 nM and 65.5 nM, respectively.
Turning to `COc1ccc(C(=O)N2Cc3ccccc3C[C@H]2C)c(-c2cc(C(=O)N(c3ccncc3)c3ccc(O)cc3)c(C)n2C)c1` [Example 20, N-(4-Hydroxyphenyl)-5-(5-methoxy-2-{[(3R)-3-methyl-3,4-dihydroisoquinolin-2(1H)-yl]carbonyl}phenyl)-1,2-dimethyl-N-(pyridin-4-yl)-1H-pyrrole-3-carboxamide hydrochloride], the IC50 came out at 4.9 nM on Bcl-2 protein and 164 nM in experiment [1] (Homo sapiens, RS4-11, 48 h).
With `Cc1c(C(=O)N(c2ccc(O)cc2)c2cnn(C)c2)cc(-c2cc3c(cc2C(=O)N2Cc4ccccc4C[C@H]2CN2CCOCC2)OCCO3)n1C` [Example 21, N-(4-Hydroxyphenyl)-1,2-dimethyl-N-(1-methyl-1H-pyrazol-4-yl)-5-(7-{[(3S)-3-(morpholin-4-ylmethyl)-3,4-dihydroisoquinolin-2(1H)-yl]carbonyl}-2,3-dihydro-1,4-benzodioxin-6-yl)-1H-pyrrole-3-carboxamide hydrochloride], the IC50 at Bcl-2 protein was determined as 4.7 nM; in experiment [1] (Homo sapiens, RS4-11, 48 h) it was 79.9 nM.
For the compound `Cc1c(C(=O)N(c2ccccc2)c2ccc(O)cc2)cc(-c2cc3c(cc2C(=O)N2Cc4ccccc4C[C@H]2CN2CCOCC2)OCCO3)n1C` [Example 22, N-(4-Hydroxyphenyl)-1,2-dimethyl-5-(7-{[(3S)-3-(morpholin-4-ylmethyl)-3,4-dihydroisoquinolin-2(1H)-yl]carbonyl}-2,3-dihydro-1,4-benzodioxin-6-yl)-N-phenyl-1H-pyrrole-3-carboxamide hydrochloride], the IC50 on Bcl-2 protein is 6.6 nM; in experiment [1] (Homo sapiens, RS4-11, 48 h) it was 45.7 nM.
For `Cc1c(C(=O)N(c2ccc(O)cc2)c2cnn(C)c2)cc(-c2cc3c(cc2C(=O)N2Cc4ccccc4C[C@H]2C)OCO3)n1CCO` [Example 23, 1-(2-Hydroxyethyl)-N-(4-hydroxyphenyl)-2-methyl-5-(6-{[(3R)-3-methyl-3,4-dihydroisoquinolin-2(1H)-yl]carbonyl}-1,3-benzodioxol-5-yl)-N-(1-methyl-1H-pyrazol-4-yl)-1H-pyrrole-3-carboxamide] the same measures were 3.6 nM and 25.4 nM.
